From ChEMBL document CHEMBL3124844 (J Med Chem, 2014)

Key:
Rattus norvegicus [1] = species: Rattus norvegicus; assay: Displacement of [3H]nisoxetine from Sprague-Dawley rat brain NET at 100 uM after 180 mins by liquid scintillation counting analysis relative to control; format: tissue-based
[2] = target: Sodium-dependent serotonin transporter (Rattus norvegicus) (UniProt P31652); assay: Displacement of [3H]citalopram from Sprague-Dawley rat brain SERT at 100 uM after 60 mins by liquid scintillation counting analysis relative to control; format: tissue-based
[3] = Displacement of [3H]nisoxetine from Sprague-Dawley rat brain NET after 180 mins by liquid scintillation counting analysis; format: tissue-based
[4] = target: Sodium-dependent serotonin transporter (Rattus norvegicus, UniProt P31652); assay: Displacement of [3H]citalopram from Sprague-Dawley rat brain SERT after 60 mins by liquid scintillation counting analysis; format: tissue-based
[5] = target: T1, Sodium-dependent dopamine transporter (Rattus norvegicus, UniProt P23977); assay: Displacement of [3H]WIN35,428 from Sprague-Dawley rat brain DAT after 120 mins by liquid scintillation counting analysis; format: tissue-based
Rattus norvegicus [6] = species: Rattus norvegicus; assay: Selectivity ratio of Ki for Sprague-Dawley rat brain SERT to Ki for Sprague-Dawley rat brain DAT
[7] = target: T1, Sodium-dependent dopamine transporter; assay: Displacement of [3H]WIN35,428 from rat brain DAT; format: tissue-based

Chain of Sodium-dependent serotonin transporter (P31652 whole entry): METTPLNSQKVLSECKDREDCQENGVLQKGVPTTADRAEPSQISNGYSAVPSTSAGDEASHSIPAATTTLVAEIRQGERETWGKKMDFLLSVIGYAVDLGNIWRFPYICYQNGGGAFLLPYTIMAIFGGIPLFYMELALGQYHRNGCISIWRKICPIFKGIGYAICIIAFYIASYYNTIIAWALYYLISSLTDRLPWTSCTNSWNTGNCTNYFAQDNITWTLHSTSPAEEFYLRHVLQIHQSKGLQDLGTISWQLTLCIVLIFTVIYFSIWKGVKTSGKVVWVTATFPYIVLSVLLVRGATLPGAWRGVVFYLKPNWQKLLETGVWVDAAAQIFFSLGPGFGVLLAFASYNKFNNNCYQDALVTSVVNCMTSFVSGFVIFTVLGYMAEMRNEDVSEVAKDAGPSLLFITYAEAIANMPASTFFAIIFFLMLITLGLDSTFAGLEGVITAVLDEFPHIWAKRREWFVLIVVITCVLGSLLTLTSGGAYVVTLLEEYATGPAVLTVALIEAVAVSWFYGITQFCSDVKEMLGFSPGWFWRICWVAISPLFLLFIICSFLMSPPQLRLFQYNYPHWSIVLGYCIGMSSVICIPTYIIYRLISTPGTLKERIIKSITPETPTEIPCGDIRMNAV
Chain of Sodium-dependent serotonin transporter (Rattus norvegicus) (P31652 whole entry): as above
T1 sequence (P23977 whole entry): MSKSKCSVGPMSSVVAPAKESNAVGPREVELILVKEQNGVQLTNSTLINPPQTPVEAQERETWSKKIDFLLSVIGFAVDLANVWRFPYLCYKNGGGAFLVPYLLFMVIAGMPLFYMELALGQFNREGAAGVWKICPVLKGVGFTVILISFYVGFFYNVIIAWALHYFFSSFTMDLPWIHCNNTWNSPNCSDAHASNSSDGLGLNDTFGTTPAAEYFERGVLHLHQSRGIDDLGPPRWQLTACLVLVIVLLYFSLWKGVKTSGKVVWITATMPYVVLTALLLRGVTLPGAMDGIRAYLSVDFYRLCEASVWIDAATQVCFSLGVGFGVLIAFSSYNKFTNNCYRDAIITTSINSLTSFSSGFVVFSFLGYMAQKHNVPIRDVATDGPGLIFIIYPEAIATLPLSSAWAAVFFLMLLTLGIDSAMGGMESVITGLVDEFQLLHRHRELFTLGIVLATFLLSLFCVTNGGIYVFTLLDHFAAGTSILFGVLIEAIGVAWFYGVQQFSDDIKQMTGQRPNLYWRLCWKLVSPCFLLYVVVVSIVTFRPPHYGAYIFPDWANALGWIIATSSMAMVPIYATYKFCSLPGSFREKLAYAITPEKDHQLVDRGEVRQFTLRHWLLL

| Compound | inhibition (Rattus norvegicus [1]) [%] | inhibition [2] [%] | Ki [3] [µM] | Ki [4] [µM] | Ki [5] [µM] | other results |
| --- | --- | --- | --- | --- | --- | --- |
| NC(=O)C[S+]([O-])C(c1ccccc1)c1cccc(Br)c1 (racemic) | < 50 | < 50 |  |  |  |  |
| Cc1ccc(C(c2ccc(C)cc2)[S+]([O-])CC(N)=O)cc1 (stereo not given) | < 50 | < 50 |  |  |  |  |
| CCCNC(=O)CSC(c1ccccc1)c1ccccc1 |  | < 50 | 68 | 419 |  |  |
| NCC[S+]([O-])C(c1ccccc1)c1ccccc1 (stereo not given) |  |  |  | 3.38 |  |  |
| CNC(=O)CSC(c1ccc(Cl)cc1)c1ccc(Cl)cc1 |  |  |  | 10.7 |  |  |
| O=C(CSC(c1ccc(Br)cc1)c1ccc(Br)cc1)NCCCc1ccccc1 |  |  | 35.5 |  | 0.238 |  |
| NC(=O)CSC(c1cccc(Cl)c1)c1cccc(Cl)c1 |  | < 50 | 45.4 | 808 |  | Ratio Ki (Rattus norvegicus [6]): > 2900 |
| CCCCNCC[S+]([O-])C(c1ccccc1)c1ccccc1 (stereo not given) |  |  | 138 | 63.6 |  |  |
| CCCNC(=O)CSC(c1ccc(Cl)cc1)c1ccc(Cl)cc1 |  |  |  | 10.1 |  |  |
| c1ccc(CCCNCCSC(c2ccccc2)c2ccccc2)cc1 |  |  | 5.5 | 0.927 |  |  |
| O=C(CSC(c1ccccc1)c1ccccc1)NCCCCc1ccccc1 |  | < 50 |  |  |  |  |
| CNC(=O)CSC(c1ccccc1)c1ccccc1 |  |  |  | 656 |  |  |
| O=C(CSC(c1ccccc1)c1ccccc1)NCC1CC1 | < 50 |  |  | 20.5 | 13.6 |  |
| CCCNC(=O)CSC(c1ccc(Br)cc1)c1ccc(Br)cc1 |  |  | 10.6 |  |  |  |
| O=C(C[S+]([O-])C(c1ccc(Br)cc1)c1ccc(Br)cc1)NCCCc1ccccc1 (stereo not given) | < 50 |  |  | 0.892 |  |  |
| O=C(CSC(c1ccc(F)cc1)c1ccc(F)cc1)NCCCc1ccccc1 | < 50 |  |  | 3.5 |  |  |
| O=C(CSC(c1ccc(Br)cc1)c1ccc(Br)cc1)NCC1CC1 | < 50 |  |  | 7.03 | 0.975 |  |

| Compound | inhibition (Rattus norvegicus [1]) [%] | inhibition [2] [%] | Ki [3] [µM] | Ki [4] [µM] | Ki [5] [µM] | other results |
| --- | --- | --- | --- | --- | --- | --- |
| O=C(CSC(c1ccc(F)cc1)c1ccc(F)cc1)NCC1CC1 |  |  |  | 34 | 6.7 |  |
| NCCSC(c1ccccc1)c1ccccc1 |  |  |  | 0.221 |  |  |
| NC(=O)C[S+]([O-])C(c1cccc(Cl)c1)c1cccc(Cl)c1 (stereo not given) | < 50 | < 50 |  |  |  |  |
| CNC(=O)C[S+]([O-])C(c1ccccc1)c1ccccc1 (stereo not given) | < 50 | < 50 |  |  | 13.1 |  |
| NC(=O)C[S+]([O-])C(c1cccc(F)c1)c1cccc(F)c1 (stereo not given) | < 50 | < 50 |  |  | 5.93 |  |
| CC(=O)N1[C@@H]2CC[C@H]1C[C@H](OC(c1ccc(F)cc1)c1ccc(F)cc1)C2 |  |  |  |  |  | Ki [7]: 2.34 µM |
| [O-][S+](CCNCCCc1ccccc1)C(c1ccc(Cl)cc1)c1ccc(Cl)cc1 (stereo not given) |  |  | 5.67 | 0.553 | 0.645 |  |
| [O-][S+](CCNCCCc1ccccc1)C(c1ccc(Br)cc1)c1ccc(Br)cc1 (stereo not given) |  |  | 8.65 | 0.557 | 1.27 |  |
| CCCCNCCSC(c1ccccc1)c1ccccc1 |  |  | 11.5 | 5.7 | 0.31 |  |
| CCCNC(=O)CSC(c1ccc(F)cc1)c1ccc(F)cc1 |  |  | 59.7 | 44.2 |  |  |
| [O-][S+](CCNCCCc1ccccc1)C(c1ccc(F)cc1)c1ccc(F)cc1 (stereo not given) |  |  |  | 1.28 | 0.183 |  |
| CCCCNC(=O)CSC(c1ccccc1)c1ccccc1 | < 50 | < 50 |  |  |  |  |
| C=CCNC(=O)CSC(c1ccccc1)c1ccccc1 | < 50 | < 50 | 171 | 303 | 8.37 |  |
| O=C(CSC(c1ccc(Br)cc1)c1ccc(Br)cc1)NCCCCc1ccccc1 | < 50 | < 50 |  |  |  |  |
| NC(=O)CSC(c1ccccc1)c1ccccc1 | < 50 |  | 285 |  |  |  |
| CNC(=O)CSC(c1ccc(Br)cc1)c1ccc(Br)cc1 |  |  | 11 |  |  |  |
